Where two headings read alike, the source gives them in different places. Values belong to the molecule of their own block, whether it stands above or below them.
Assays:
[1] = target: T1, baculovirus-expressed ALK (Homo sapiens, UniProt Q9UM73); experiment: ALK Kinase Assay (ELISA-type, time-resolved fluorescence); format: biochemical
T1 construct: host or cells: baculovirus expression system
Summary of the method: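 Plates coated with phospholipase C-γ substrate (10 μg/mL in TBS); reaction started with 30 ng/ml ALK and run 15 min at 37° C. Phosphorylated substrate detected with Eu-N1-labeled PT66 antibody. IC50 from sigmoidal variable-slope fit of percent inhibition vs log concentration.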

[2] = target: T2, c-Met (cytoplasmic domain) (Homo sapiens, UniProt P08581); experiment: c-Met Kinase Assay (same methods as for ALK, with modifications); format: biochemical
T2 construct: 10 ng/mL c-Met (cytoplasmic domain, Invitrogen Corporation #PV3143); purchased Invitrogen Corporation PV3143
T2 sequence (P08581 956-1390 limits assumed): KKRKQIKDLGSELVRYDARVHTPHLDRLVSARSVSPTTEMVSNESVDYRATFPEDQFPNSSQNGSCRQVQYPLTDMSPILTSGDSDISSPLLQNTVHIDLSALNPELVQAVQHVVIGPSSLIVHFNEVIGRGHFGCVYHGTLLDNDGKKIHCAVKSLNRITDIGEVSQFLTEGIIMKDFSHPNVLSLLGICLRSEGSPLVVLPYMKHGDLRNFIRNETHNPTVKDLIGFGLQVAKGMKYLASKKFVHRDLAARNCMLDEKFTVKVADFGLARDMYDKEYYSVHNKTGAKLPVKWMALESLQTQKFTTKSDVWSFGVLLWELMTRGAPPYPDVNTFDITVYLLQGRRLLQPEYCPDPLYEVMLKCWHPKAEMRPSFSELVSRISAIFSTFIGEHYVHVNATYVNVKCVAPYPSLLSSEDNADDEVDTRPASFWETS
Summary of the method: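 Europium-labeled PT66 antibody (Eu-N1) detects substrate phosphorylation on wells coated with phospholipase C-γ at 10 μg/mL. The kinase, the cytoplasmic domain of c-Met at 10 ng/mL, starts the reaction, which proceeds 15 minutes at 37° C.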

[3] = ALK kinase inhibition, 1 μM ATP, read-out: ALK Activity
[4] = c-Met kinase inhibition, 1 μM ATP, read-out: cMet Activity
[5] = 1 μM ATP (Km level), 30 ng/ml ALK, 37° C., 15 minutes, read-out: ALK Activity (ALK kinase inhibition, IC50 class)
[6] = 1 μM ATP (Km level), 10 ng/mL c-Met, read-out: cMet Activity (c-Met kinase inhibition, IC50 class)
[7] = ALK kinase inhibition, 1 μM ATP (Km level), read-out: ALK Activity
[8] = c-Met kinase inhibition, 1 μM ATP (Km level), read-out: cMet Activity
[9] = 1 μM ATP (Km level), read-out: ALK Activity (ALK Kinase Inhibition, IC50)
[10] = 1 μM ATP (Km level), read-out: cMet Activity (c-Met Kinase Inhibition, IC50)

T1 sequence (Q9UM73 19-1620): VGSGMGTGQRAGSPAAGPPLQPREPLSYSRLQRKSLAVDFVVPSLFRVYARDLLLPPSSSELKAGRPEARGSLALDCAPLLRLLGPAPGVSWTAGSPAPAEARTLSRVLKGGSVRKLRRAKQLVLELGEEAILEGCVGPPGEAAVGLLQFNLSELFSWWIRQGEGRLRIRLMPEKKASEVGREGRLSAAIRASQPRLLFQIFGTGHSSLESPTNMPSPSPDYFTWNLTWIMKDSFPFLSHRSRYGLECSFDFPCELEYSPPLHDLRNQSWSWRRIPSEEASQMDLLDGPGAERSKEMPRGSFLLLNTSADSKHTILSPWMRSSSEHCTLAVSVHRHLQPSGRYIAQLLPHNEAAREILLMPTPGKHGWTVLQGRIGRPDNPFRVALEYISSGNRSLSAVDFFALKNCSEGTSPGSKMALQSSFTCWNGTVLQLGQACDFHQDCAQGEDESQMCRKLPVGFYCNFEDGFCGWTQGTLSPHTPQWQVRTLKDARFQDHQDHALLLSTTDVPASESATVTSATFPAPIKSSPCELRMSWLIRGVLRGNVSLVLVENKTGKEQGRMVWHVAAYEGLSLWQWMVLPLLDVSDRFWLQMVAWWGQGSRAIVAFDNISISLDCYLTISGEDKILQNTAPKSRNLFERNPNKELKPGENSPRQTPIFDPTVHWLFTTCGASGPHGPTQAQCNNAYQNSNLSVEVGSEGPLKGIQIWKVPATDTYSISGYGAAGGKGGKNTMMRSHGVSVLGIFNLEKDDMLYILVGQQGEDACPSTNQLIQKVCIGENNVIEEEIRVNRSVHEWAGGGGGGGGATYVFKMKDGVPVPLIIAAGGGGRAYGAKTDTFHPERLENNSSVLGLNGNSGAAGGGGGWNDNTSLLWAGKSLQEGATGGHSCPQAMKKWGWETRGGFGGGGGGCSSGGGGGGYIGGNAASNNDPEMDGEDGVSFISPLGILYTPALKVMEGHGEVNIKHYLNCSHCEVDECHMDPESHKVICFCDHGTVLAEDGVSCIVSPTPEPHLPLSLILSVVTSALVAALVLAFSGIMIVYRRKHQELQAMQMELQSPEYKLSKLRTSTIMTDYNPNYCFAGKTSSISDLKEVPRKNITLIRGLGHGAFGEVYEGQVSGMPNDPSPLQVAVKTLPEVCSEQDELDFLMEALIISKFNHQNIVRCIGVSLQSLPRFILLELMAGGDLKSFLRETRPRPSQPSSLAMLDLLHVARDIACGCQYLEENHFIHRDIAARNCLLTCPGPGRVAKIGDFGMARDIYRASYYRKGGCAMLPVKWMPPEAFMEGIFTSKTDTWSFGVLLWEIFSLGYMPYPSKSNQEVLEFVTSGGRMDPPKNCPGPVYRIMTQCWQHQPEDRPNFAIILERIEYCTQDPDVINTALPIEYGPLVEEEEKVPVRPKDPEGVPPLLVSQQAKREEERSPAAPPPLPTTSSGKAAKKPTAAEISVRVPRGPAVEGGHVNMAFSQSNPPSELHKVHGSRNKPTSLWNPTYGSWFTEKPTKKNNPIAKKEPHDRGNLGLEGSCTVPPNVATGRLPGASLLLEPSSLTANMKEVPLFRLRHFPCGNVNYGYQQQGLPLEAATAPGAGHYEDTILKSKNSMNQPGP

IC50 [1, 5]: < 100 nM
IC50 [2, 6]: 100 to 1000 nM
Molecule: CC1(C)CCC(=O)Nc2ccc(Nc3ncc(Cl)c(Nc4c(F)cccc4C(=O)NCCC#N)n3)cc21 [Example 1041, 2-[5-Chloro-2-(5,5-dimethyl-2-oxo-2,3,4,5-tetrahydro-1H-benzo[b]azepin-7-ylamino)-pyrimidin-4-ylamino]-N-(2-cyano-ethyl)-3-fluoro-benzamide]

IC50 [1, 3]: 100 to 1000 nM
IC50 [2, 4]: 100 to 1000 nM
Molecule: CNC(=O)c1cccc(F)c1Nc1nc(Nc2ccc3c(c2)N(C(C)C)CCCC3(C)C)ncc1Cl [Example 1626, 2-[5-Chloro-2-(1-isopropyl-5,5-dimethyl-2,3,4,5-tetrahydro-1H-benzo[b]azepin-8-ylamino)-pyrimidin-4-ylamino]-3-fluoro-N-methyl-benzamide]

IC50 [1, 7]: < 100 nM
IC50 [2, 8]: > 10000 nM
Molecule: CCNC(=O)c1ccccc1Nc1nc(Nc2cc3c(cc2OC)CC(=O)N(CC)CC3)ncc1Cl [Example 255, 2-[5-Chloro-2-(3-ethyl-8-methoxy-2-oxo-2,3,4,5-tetrahydro-1H-benzo[d]azepin-7-ylamino)-pyrimidin-4-ylamino]-N-ethyl-benzamide]

IC50 [1, 3]: > 10000 nM
IC50 [2, 4]: < 100 nM
Molecule: C#CCNC(=O)c1cccc(F)c1Nc1nc(Nc2ccc3c(c2)N(C(=O)CN2C(=O)c4ccccc4C2=O)CCCC3(C)C)ncc1Cl [Example 1618, 2-(5-Chloro-2-{1-[2-(1,3-dioxo-1,3-dihydro-isoindol-2-yl)-acetyl]-5,5-dimethyl-2,3,4,5-tetrahydro-1H-benzo[b]azepin-8-ylamino}-pyrimidin-4-ylamino)-3-fluoro-N-prop-2-ynyl-benzamide]

IC50 [1, 9]: 100 to 1000 nM
IC50 [2, 10]: > 10000 nM
Molecule: COc1cc2c(cc1Nc1ncc(F)c(NC3C4C=CC(C4)C3C(N)=O)n1)CCN(CC(F)F)CC2 (stereo not drawn) [Example 769, (2-exo,3-exo)-3-{2-[3-(2,2-Difluoro-ethyl)-8-methoxy-2,3,4,5-tetrahydro-1H-benzo[d]azepin-7-ylamino]-5-fluoro-pyrimidin-4-ylamino}-bicyclo[2.2.1]hept-5-ene-2-carboxylic acid amide]

IC50 [1, 3]: 100 to 1000 nM
IC50 [2, 4]: > 10000 nM
Molecule: C#CCNC(=O)c1sccc1Nc1nc(Nc2ccc3c(c2)NC(=O)CCC3(C)C)ncc1Cl [Example 1623, 3-[5-Chloro-2-(5,5-dimethyl-2-oxo-2,3,4,5-tetrahydro-1H-benzo[b]azepin-8-ylamino)-pyrimidin-4-ylamino]-thiophene-2-carboxylic acid prop-2-ynylamide]

IC50 [1, 5]: 100 to 1000 nM
IC50 [2, 6]: 1000 to 10000 nM
Molecule: 5-Chloro-N(4)-(2-fluoro-6-methanesulfonyl-phenyl)-(2-fluoro-6-methanesulfonyl-phenyl)2,3,4,5-tetrahydro-1H-3-benzazepin-7-yl]-pyrimidine-2,4-diamine [Example 1262]

IC50 [1, 9]: < 100 nM
IC50 [2, 10]: 100 to 1000 nM
Molecule: CNC(=O)[C@@H]1[C@H](Nc2nc(Nc3ccc4c(c3)C(C)(C)CCC(=O)N4)ncc2Cl)[C@H]2C=C[C@@H]1C2 (relative stereo) [Example 620, (2-exo-3-exo)-3-[5-Chloro-2-(5,5-dimethyl-2-oxo-2,3,4,5-tetrahydro-1H-benzo[b]azepin-7-ylamino)-pyrimidin-4-ylamino]-bicyclo[2.2.1]hept-5-ene-2-carboxylic acid methylamide]

IC50 [1, 7]: 100 to 1000 nM
IC50 [2, 8]: 1000 to 10000 nM
Molecule: CN1CCN(C)c2cccc(Nc3ncc(Cl)c(N[C@@H]4CCCC[C@H]4NS(C)(=O)=O)n3)c2C1=O [Example 214, N-{(1R,2R)-2-[5-Chloro-2-(1,4-dimethyl-5-oxo-2,3,4,5-tetrahydro-1H-benzo[e][1,4]diazepin-6-ylamino)-pyrimidin-4-ylamino]-cyclohexyl}-methanesulfonamide]

Continued, molecule first:

Molecule: COc1cc2c(cc1Nc1ncc(Cl)c(N[C@@H]3CCCC[C@H]3NS(C)(=O)=O)n1)CCOC(=O)N2C [Example 1503, N-{(1R,2R)-2-[5-Chloro-2-(3-methoxy-5-methyl-6-oxo-5,6,8,9-tetrahydro-7-oxa-5-aza-benzocyclohepten-2-ylamino)-pyrimidin-4-ylamino]-cyclohexyl}-methanesulfonamide]
IC50 [1, 3]: < 100 nM
IC50 [2, 4]: > 10000 nM

Molecule: CNC(=O)c1ccccc1Nc1nc(Nc2ccc3c(c2)C2CCC(C3)N2)ncc1Cl (centres unmarked) [Example 79, 2-[2-(12-Aza-tricyclo[7.2.1.0*2,7*]dodeca-2(7),3,5-trien-4-ylamino)-5-chloro-pyrimidin-4-ylamino]-N-methyl-benzamide]
IC50 [1, 7]: < 100 nM
IC50 [2, 8]: < 100 nM

Molecule: CN1CCN(C[C@@H](O)C(F)(F)F)Cc2cc(OCC(F)(F)F)c(Nc3ncc(Cl)c(N[C@@H]4CCCC[C@H]4NS(C)(=O)=O)n3)cc21 [Example 498, N-((1R,2R)-2-{5-Chloro-2-[1-methyl-7-(2,2,2-trifluoro-ethoxy)-4-((R)-3,3,3-trifluoro-2-hydroxy-propyl)-2,3,4,5-tetrahydro-1H-benzo[e][1,4]diazepin-8-ylamino]-pyrimidin-4-ylamino}-cyclohexyl)-methanesulfonamide]
IC50 [1, 9]: 100 to 1000 nM
IC50 [2, 10]: > 10000 nM

Molecule: COCC(COC)N1CCc2cc(Nc3ncc(Cl)c(Nc4ccc(N5CCOCC5)cc4OC)n3)c(OC)cc2CC1 [Example 814, 5-Chloro-N*2*-[8-methoxy-3-(2-methoxy-1-methoxymethyl-ethyl)-2,3,4,5-tetrahydro-1H-benzo[d]azepin-7-yl]-N*4*-(2-methoxy-4-morpholin-4-yl-phenyl)-pyrimidine-2,4-diamine]
IC50 [1, 9]: < 100 nM
IC50 [2, 10]: > 10000 nM

Molecule: CCN1C2CCC1c1cc(Nc3ncc(Cl)c(Nc4ccccc4C(=O)NC)n3)ccc1C2 (racemic) [Example 101, (+/−)-2-[5-Chloro-2-(12-ethyl-12-aza-tricyclo[7.2.1.0*2,7*]dodeca-2(7),3,5-trien-4-ylamino)-pyrimidin-4-ylamino]-N-methyl-benzamide]
IC50 [1, 7]: < 100 nM
IC50 [2, 8]: < 100 nM

Molecule: COc1cc(N2CCOCC2)ccc1Nc1nc(Nc2ccc3c(c2)CCCC(=O)N3C(C)C)ncc1Cl [Example 666, 7-[5-Chloro-4-(2-methoxy-4-morpholin-4-yl-phenylamino)-pyrimidin-2-ylamino]-1-isopropyl-1,3,4,5-tetrahydro-benzo[b]azepin-2-one]
IC50 [1, 9]: 100 to 1000 nM
IC50 [2, 10]: 1000 to 10000 nM

Molecule: CNC(=O)c1ccc2c(c1Nc1nc(Nc3ccc4c(c3)CCN(CCOC)CC4)ncc1Cl)OCO2 [Example 1480, 4-{5-Chloro-2-[3-(2-methoxy-ethyl)-2,3,4,5-tetrahydro-1H-benzo[d]azepin-7-ylamino]-pyrimidin-4-ylamino}-benzo[1,3]dioxole-5-carboxylic acid methylamide]
IC50 [1, 3]: 100 to 1000 nM
IC50 [2, 4]: 1000 to 10000 nM

Molecule: COc1cc2c(cc1Nc1ncc(Cl)c(Nc3ccc(N(C)C)cc3OC)n1)CCN(Cc1ncco1)CC2 [Example 1172, 5-Chloro-N*4*-(4-dimethylamino-2-methoxy-phenyl)-N*2*-(8-methoxy-3-oxazol-2-ylmethyl-2,3,4,5-tetrahydro-1H-benzo[d]azepin-7-yl)-pyrimidine-2,4-diamine]
IC50 [1, 5]: < 100 nM
IC50 [2, 6]: > 10000 nM

Molecule: CS(=O)(=O)Nc1ccccc1Nc1nc(Nc2ccc3c(c2)CNCCS3(=O)=O)ncc1Cl [Example 523, N-{2-[5-Chloro-2(5,5dioxo-6,7,8,9-tetrahydro-5H-5lambda*6*-thia-8-aza-benzocyclohepten-2-ylamino)-pyrimidin-4-ylamino]-phenyl}-methanesulfonamide]
IC50 [1, 9]: 100 to 1000 nM
IC50 [2, 10]: 1000 to 10000 nM

Molecule: COC(CN1CCc2ccc(Nc3ncc(Cl)c(NC4C5C=CC(C5)C4C(N)=O)n3)cc2CC1)C(F)(F)F (mixture of isomers) [Example 338, (2-exo, 3-exo)-3-{5-Chloro-2-[3-((S)-3,3,3-trifluoro-2-methoxy-propyl)-2,3,4,5-tetrahydro-1H-benzo[d]azepin-7-ylamino]-pyrimidin-4-ylamino}-bicyclo[2.2.1]hept-5-ene-2-carboxylic acid amide]
IC50 [1, 7]: < 100 nM
IC50 [2, 8]: 100 to 1000 nM

Molecule: COc1cc2c(cc1Nc1ncc(Cl)c(Nc3ccc[nH]c3=O)n1)CCN(CC(=O)N(C)C)CC2 [Example 1186, 2-{7-[5-Chloro-4-(2-oxo-1,2-dihydro-pyridin-3-ylamino)-pyrimidin-2-ylamino]-8-methoxy-1,2,4,5-tetrahydro-benzo[d]azepin-3-yl}-N,N-dimethyl-acetamide]
IC50 [1, 5]: < 100 nM
IC50 [2, 6]: > 10000 nM

Molecule: COc1cc2c(cc1Nc1ncc(Cl)c(Nc3ccccc3-n3cccn3)n1)CCC(NCCO)CC2 (centres unmarked) [Example 1091, 2-{2-[5-Chloro-4-(2-pyrazol-1-yl-phenylamino)-pyrimidin-2-ylamino]-3-methoxy-6,7,8,9-tetrahydro-5H-benzocyclohepten-7-ylamino}-ethanol]
IC50 [1, 5]: < 100 nM
IC50 [2, 6]: 1000 to 10000 nM

Molecule: COc1ccc(Nc2nc(Nc3cc4c(cc3OC)CCN(CC(=O)N(C)C)CC4)ncc2Cl)c(NS(C)(=O)=O)c1 [Example 821, 2-{7-[5-Chloro-4-(2-methanesulfonylamino-4-methoxy-phenylamino)-pyrimidin-2-ylamino]-8-methoxy-1,2,4,5-tetrahydro-benzo[d]azepin-3-yl}-N,N-dimethyl-acetamide]
IC50 [1, 9]: < 100 nM
IC50 [2, 10]: > 10000 nM
